One assay has as its target T1, AtzB_Hom_Hal (Mangrovimicrobium sediminis, UniProt A0A4Z0M5D5).
T1 sequence (A0A4Z0M5D5 1-465): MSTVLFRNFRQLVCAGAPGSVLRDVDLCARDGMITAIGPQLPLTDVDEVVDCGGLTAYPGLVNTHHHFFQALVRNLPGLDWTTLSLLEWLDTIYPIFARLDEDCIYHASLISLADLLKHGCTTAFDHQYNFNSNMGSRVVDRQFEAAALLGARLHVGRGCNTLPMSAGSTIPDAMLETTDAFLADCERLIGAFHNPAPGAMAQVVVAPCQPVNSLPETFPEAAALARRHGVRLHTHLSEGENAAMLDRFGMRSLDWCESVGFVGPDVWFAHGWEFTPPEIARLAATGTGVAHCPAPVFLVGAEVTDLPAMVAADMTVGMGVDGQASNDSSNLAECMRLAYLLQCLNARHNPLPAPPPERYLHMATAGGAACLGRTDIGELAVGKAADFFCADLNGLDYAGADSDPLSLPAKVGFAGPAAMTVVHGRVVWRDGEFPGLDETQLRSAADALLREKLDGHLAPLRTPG
As to the kind of experiment: direct photometric steady-state assay, spectrophotometer. In kind it is biochemical. The note with it: 50 mM potassium phosphate pH 7.5, 25 °C.

The target in another assay is T2, AtzB (Pseudomonas sp. ADP, UniProt P95442).
T2 sequence (P95442 1-481): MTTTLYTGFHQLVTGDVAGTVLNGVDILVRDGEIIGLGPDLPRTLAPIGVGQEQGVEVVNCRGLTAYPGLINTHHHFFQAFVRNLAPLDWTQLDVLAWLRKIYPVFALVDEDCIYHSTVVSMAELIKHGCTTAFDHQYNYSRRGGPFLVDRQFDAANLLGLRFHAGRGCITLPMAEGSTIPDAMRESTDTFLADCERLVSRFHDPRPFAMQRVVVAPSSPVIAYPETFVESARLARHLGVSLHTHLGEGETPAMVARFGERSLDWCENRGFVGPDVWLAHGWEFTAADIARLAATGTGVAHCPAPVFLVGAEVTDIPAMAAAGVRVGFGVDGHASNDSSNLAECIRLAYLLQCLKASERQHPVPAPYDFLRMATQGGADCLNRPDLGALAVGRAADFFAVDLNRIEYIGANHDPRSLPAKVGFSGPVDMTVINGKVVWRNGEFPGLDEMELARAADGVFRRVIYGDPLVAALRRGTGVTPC
The description is as above. In kind it is biochemical. As to conditions: 50 mM potassium phosphate pH 7.5, 25 °C.

For the molecule `CCNc1nc(O)nc(NC(C)C)n1` [II, hydroxyatrazine], the KM entry on AtzB_Hom_Hal was “promiscuous hydroxyatrazine hydrolase activities of AtzB_Hom_Hal and AtzB_Hom_Pleo”. `Nc1nc2[nH]cnc2c(=O)[nH]1` [guanine]: at AtzB, the kcat/KM entry is on record as “represents an increase of about three orders of magnitude compared to AtzB”.

Values taken from article PMC7615792 (ACS catalysis, 2023).
